Assay results from patent US6358885B1, “Substituted phenylheterocyclic herbicides” (Mississippi State University, priority 1992, dated 2002).

Assays:
cheatgrass = assay: Test B preemergence/postemergence greenhouse plant response rating 0 to 10; type: in vivo, Bromus secalinus; details: for Plant response rating, Cheatgrass: 0 to 10 scale
Outline: (§1)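 Planted seeds are treated preemergence with compound dissolved in a non-phytotoxic solvent, while postemergence applications go onto plants of two to eighteen cm. Plants stay in the greenhouse twelve to sixteen days and are then rated visually relative to controls.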

wild buckwheat [1] = assay: as above; type: in vivo, Polygonum convolvulus; details: for Plant response rating, Wild buckwheat: 0 to 10 scale
Outline: as §1

sorghum = assay: as above; type: in vivo, Sorghum bicolor; details: for Plant response rating, Sorghum: 0 to 10 scale
Outline: as §1

corn = assay: as above; type: in vivo, Zea mays; details: for Plant response rating, Corn: 0 to 10 scale
Outline: as §1

velvetleaf = assay: Test C preemergence/postemergence greenhouse plant response rating 0 to 100; type: in vivo, Abutilon theophrasti; details: for Plant response rating, Velvetleaf: 125 g/ha, 0 to 100 scale
Outline: (§2)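 Compounds in non-phytotoxic solvent went onto sandy loam before emergence (seeded one day earlier) or onto plants at the one-to-four leaf stage. Duck salad was treated via flood water (~2.5 cm, maintained) over silt loam.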

lambsquarters = assay: as above; type: in vivo, Chenopodium album; details: for Plant response rating Lambsquarters: 125 g/ha, 0 to 100 scale
Outline: as §2

duck salad = assay: Test C flood test plant response rating 0 to 100; type: in vivo, Heteranthera limosa
Outline: as §2

cotton = assay: Test C preemergence/postemergence greenhouse plant response rating 0 to 100; type: in vivo, Gossypium hirsutum; details: for Plant response rating, Cotton: 125 g/ha, 0 to 100 scale
Outline: as §2

wild oat = assay: Test B preemergence/postemergence greenhouse plant response rating 0 to 10; type: in vivo, Avena fatua; details: for Plant response rating, Wild oat: 0 to 10 scale
Outline: as §1

wild buckwheat [2] = assay: Test C preemergence/postemergence greenhouse plant response rating 0 to 100; type: in vivo, Polygonum convolvulus; details: for Plant response rating, Wild buckwheat: 125 g/ha, 0 to 100 scale
Outline: as §2

CCOCOc1cc(-c2nn3c(c2Cl)CCCC3)c(F)cc1Cl [Compound 59]
3: Plant response rating, Sorghum (sorghum; POSTEMERGENCE, Rate 50 g/ha)
90: Plant response rating (0 to 100), Velvetleaf (velvetleaf; Rate 31 g/ha, POSTEMERGENCE)
1: Plant response rating, Sorghum (sorghum; PREEMERGENCE, Rate 50 g/ha) | Plant response rating, Corn (corn; PREEMERGENCE, Rate 50 g/ha)
4: Plant response rating, Cheatgrass (cheatgrass; POSTEMERGENCE, Rate 50 g/ha) | Plant response rating, Cheatgrass (cheatgrass; PREEMERGENCE, Rate 50 g/ha) | Plant response rating, Sorghum (sorghum; Rate 200 g/ha, POSTEMERGENCE) | Plant response rating, Corn (corn; POSTEMERGENCE, Rate 50 g/ha)
95: Plant response rating (0 to 100), Velvetleaf (velvetleaf; Rate 31 g/ha, PREEMERGENCE) | Plant response rating Lambsquarters (lambsquarters; POSTEMERGENCE) | Plant response rating (0 to 100), Lambsquarters (lambsquarters; Rate 8 g/ha, PREEMERGENCE) | Plant response rating (0 to 100), Cotton (cotton; POSTEMERGENCE, Rate 2 g/ha)
5: Plant response rating (0 to 10 scale), Cheatgrass (cheatgrass; PREEMERGENCE, Rate 200 g/ha) | Plant response rating (0 to 10 scale), Sorghum (sorghum; PREEMERGENCE, Rate 200 g/ha) | Plant response rating, Corn (corn; Rate 200 g/ha, POSTEMERGENCE)
30: Plant response rating (0 to 100), Lambsquarters (lambsquarters; POSTEMERGENCE, Rate 2 g/ha)
2: Plant response rating (0 to 10 scale), Corn (corn; PREEMERGENCE, Rate 200 g/ha) | Plant response rating, Wild oat (wild oat; PREEMERGENCE, Rate 50 g/ha)
0: Plant response rating (0 to 100), Velvetleaf (velvetleaf; PREEMERGENCE, Rate 2 g/ha) | Plant response rating (0 to 100), Lambsquarters (lambsquarters; PREEMERGENCE, Rate 2 g/ha) | Plant response rating (0 to 100), Duck salad (duck salad; POSTEMERGENCE section, flood test, Rate 2 g/ha) | Plant response rating (0 to 100), Duck salad (duck salad; Rate 8 g/ha, under POSTEMERGENCE head (flood test species)) | Plant response rating (0 to 100), Cotton (cotton; PREEMERGENCE, Rate 2 g/ha) | Plant response rating (0 to 100), Cotton (cotton; Rate 8 g/ha, PREEMERGENCE) | Plant response rating (0 to 100), Wild buckwheat (wild buckwheat [2]; PREEMERGENCE, Rate 2 g/ha) | Plant response rating (0 to 100), Wild buckwheat (wild buckwheat [2]; Rate 8 g/ha, PREEMERGENCE)
6: Plant response rating, Cheatgrass (cheatgrass; Rate 200 g/ha, POSTEMERGENCE)
70: Plant response rating (0 to 100), Velvetleaf (velvetleaf; Rate 8 g/ha, POSTEMERGENCE) | Plant response rating (0 to 100), Lambsquarters (lambsquarters; Rate 8 g/ha, POSTEMERGENCE)
10: Plant response rating, Wild buckwheat (wild buckwheat [1]; POSTEMERGENCE, Rate 50 g/ha) | Plant response rating, Wild buckwheat (wild buckwheat [1]; PREEMERGENCE, Rate 50 g/ha) | Plant response rating (0 to 10 scale), Wild buckwheat (wild buckwheat [1]; PREEMERGENCE, Rate 200 g/ha) | Plant response rating, Wild buckwheat (wild buckwheat [1]; Rate 200 g/ha, POSTEMERGENCE) | Plant response rating (0 to 100), Cotton (cotton; Rate 31 g/ha, PREEMERGENCE)
40: Plant response rating (0 to 100), Velvetleaf (velvetleaf; Rate 8 g/ha, PREEMERGENCE) | Plant response rating (0 to 100), Duck salad (duck salad; Rate 31 g/ha, under POSTEMERGENCE head (flood test species))
7: Plant response rating, Wild oat (wild oat; POSTEMERGENCE, Rate 50 g/ha) | Plant response rating (0 to 10 scale), Wild oat (wild oat; PREEMERGENCE, Rate 200 g/ha) | Plant response rating, Wild oat (wild oat; Rate 200 g/ha, POSTEMERGENCE)
80: Plant response rating Duck salad (duck salad; flood test species listed under POSTEMERGENCE, 125 g/ha, 0 to 100 scale)
100: Plant response rating, Velvetleaf (velvetleaf; POSTEMERGENCE) | Plant response rating, Velvetleaf (velvetleaf; PREEMERGENCE) | Plant response rating Lambsquarters (lambsquarters; PREEMERGENCE) | Plant response rating (0 to 100), Lambsquarters (lambsquarters; Rate 31 g/ha, PREEMERGENCE) | Plant response rating, Cotton (cotton; POSTEMERGENCE) | Plant response rating (0 to 100), Cotton (cotton; Rate 8 g/ha, POSTEMERGENCE) | Plant response rating (0 to 100), Cotton (cotton; Rate 31 g/ha, POSTEMERGENCE) | Plant response rating, Wild buckwheat (wild buckwheat [2]; POSTEMERGENCE) | Plant response rating (0 to 100), Wild buckwheat (wild buckwheat [2]; POSTEMERGENCE, Rate 2 g/ha) | Plant response rating, Wild buckwheat (wild buckwheat [2]; PREEMERGENCE) | Plant response rating (0 to 100), Wild buckwheat (wild buckwheat [2]; Rate 8 g/ha, POSTEMERGENCE) | Plant response rating (0 to 100), Wild buckwheat (wild buckwheat [2]; Rate 31 g/ha, POSTEMERGENCE)
85: Plant response rating (0 to 100), Lambsquarters (lambsquarters; Rate 31 g/ha, POSTEMERGENCE)
50: Plant response rating (0 to 100), Velvetleaf (velvetleaf; POSTEMERGENCE, Rate 2 g/ha) | Plant response rating, Cotton (cotton; PREEMERGENCE) | Plant response rating (0 to 100), Wild buckwheat (wild buckwheat [2]; Rate 31 g/ha, PREEMERGENCE)
